Data from the supplement of paper PMC11061612.

How the values were obtained:
[1] = test system: LOUCY (T-Lymphoblastic Leukemia); assay: combination Emax (second highest fraction inhibited in the dose matrix, 72 h); higher = more inhibition; extreme values may be limits of the assay
In short: (§1)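 Cell lines grown in DMEM/F12 or RPMI with 10% FBS were plated in 1536-well plates and held 24 hours at 37°C, 5% CO2 before 72 hours of exposure to two-drug dose matrices, with DMSO typically at 0.2%. CellTiter-Glo 2.0 luminescence gave viability, which was converted to inhibition. Vehicle wells were set to 0 and blank wells to 1. Combination Emax is the second-highest inhibition in the matrix, and Bliss excess is the observed combination effect minus the expected EA + EB − EA·EB, where EA and EB are the single-agent effects.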

[2] = test system: HCC-44 (Lung Adenocarcinoma); assay: as above
In short: as §1

[3] = test system: FLO-1 (Esophageal Adenocarcinoma); assay: as above
In short: as §1

[4] = test system: NCI-H810 (Non-Small Cell Lung Carcinoma); assay: as above
In short: as §1

[5] = test system: KYSE-70 (Esophageal Squamous Cell Carcinoma); assay: as above
In short: as §1

KYM-1 (Rhabdomyosarcoma) [6] = assay: as above
In short: as §1

[7] = test system: OV-90 (Ovarian Carcinoma); assay: as above
In short: as §1

[8] = test system: PANC-02-03 (Pancreatic Carcinoma); assay: as above
In short: as §1

[9] = test system: LAMA-84 (Chronic Myelogenous Leukemia); assay: as above
In short: as §1

[10] = test system: PC-14 (Lung Adenocarcinoma); assay: as above
In short: as §1

[11] = test system: SW684 (Other Solid Carcinomas); assay: as above
In short: as §1

[12] = test system: SK-MM-2 (Plasma Cell Myeloma); assay: as above
In short: as §1

[13] = test system: COLO-684 (Endometrial Carcinoma); assay: as above
In short: as §1

CHL-1 (Melanoma) [14] = assay: as above
In short: as §1

[15] = test system: NKM-1 (Acute Myeloid Leukemia); assay: as above
In short: as §1

[16] = test system: Becker (Low Grade Glioma); assay: as above
In short: as §1

[17] = test system: RMG-I (Ovarian Carcinoma); assay: as above
In short: as §1

[18] = test system: CML-T1 (Chronic Myelogenous Leukemia); assay: as above
In short: as §1

[19] = test system: NCI-H1755 (Lung Adenocarcinoma); assay: as above
In short: as §1

[20] = test system: EB-3 (Burkitt's Lymphoma); assay: as above
In short: as §1

[21] = test system: LOUCY (T-Lymphoblastic Leukemia); assay: Bliss excess, mean over the matrix (fraction); higher = more synergy
In short: as §1

[22] = test system: HCC-44 (Lung Adenocarcinoma); assay: as above
In short: as §1

[23] = test system: FLO-1 (Esophageal Adenocarcinoma); assay: as above
In short: as §1

[24] = test system: NCI-H810 (Non-Small Cell Lung Carcinoma); assay: as above
In short: as §1

[25] = test system: KYSE-70 (Esophageal Squamous Cell Carcinoma); assay: as above
In short: as §1

KYM-1 (Rhabdomyosarcoma) [26] = assay: as above
In short: as §1

[27] = test system: OV-90 (Ovarian Carcinoma); assay: as above
In short: as §1

[28] = test system: PANC-02-03 (Pancreatic Carcinoma); assay: as above
In short: as §1

[29] = test system: LAMA-84 (Chronic Myelogenous Leukemia); assay: as above
In short: as §1

[30] = test system: PC-14 (Lung Adenocarcinoma); assay: as above
In short: as §1

[31] = test system: SW684 (Other Solid Carcinomas); assay: as above
In short: as §1

[32] = test system: SK-MM-2 (Plasma Cell Myeloma); assay: as above
In short: as §1

[33] = test system: COLO-684 (Endometrial Carcinoma); assay: as above
In short: as §1

CHL-1 (Melanoma) [34] = assay: as above
In short: as §1

[35] = test system: NKM-1 (Acute Myeloid Leukemia); assay: as above
In short: as §1

[36] = test system: Becker (Low Grade Glioma); assay: as above
In short: as §1

[37] = test system: RMG-I (Ovarian Carcinoma); assay: as above
In short: as §1

[38] = test system: CML-T1 (Chronic Myelogenous Leukemia); assay: as above
In short: as §1

[39] = test system: NCI-H1755 (Lung Adenocarcinoma); assay: as above
In short: as §1

[40] = test system: EB-3 (Burkitt's Lymphoma); assay: as above
In short: as §1
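Throughout, for Bliss excess, mean over the matrix: after 72 h of two-drug dosing.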

| Structure (SMILES) | combination Emax [1] | combination Emax [2] | combination Emax [3] | combination Emax [4] | combination Emax [5] | combination Emax (KYM-1 (Rhabdomyosarcoma) [6]) | combination Emax [7] | combination Emax [8] | combination Emax [9] | combination Emax [10] | combination Emax [11] | combination Emax [12] | combination Emax [13] | combination Emax (CHL-1 (Melanoma) [14]) | combination Emax [15] | combination Emax [16] | combination Emax [17] | combination Emax [18] | combination Emax [19] | combination Emax [20] | Bliss excess [21] | Bliss excess [22] | Bliss excess [23] | Bliss excess [24] | Bliss excess [25] | Bliss excess (KYM-1 (Rhabdomyosarcoma) [26]) | Bliss excess [27] | Bliss excess [28] | Bliss excess [29] | Bliss excess [30] | Bliss excess [31] | Bliss excess [32] | Bliss excess [33] | Bliss excess (CHL-1 (Melanoma) [34]) | Bliss excess [35] | Bliss excess [36] | Bliss excess [37] | Bliss excess [38] | Bliss excess [39] | Bliss excess [40] |
| --- | --- | --- | --- | --- | --- | --- | --- | --- | --- | --- | --- | --- | --- | --- | --- | --- | --- | --- | --- | --- | --- | --- | --- | --- | --- | --- | --- | --- | --- | --- | --- | --- | --- | --- | --- | --- | --- | --- | --- | --- |
| Cc1c2c(nn1C)CSCc1cc(n(C)n1)CSc1cc(c3ccccc3c1)OCCCc1c(C(=O)O)n(C)c3c-2c(Cl)ccc13 [AZD5991] + CC(=O)O[C@H]1C(=O)[C@@]2(C)[C@H]([C@H](OC(=O)c3ccccc3)[C@]3(O)C[C@H](OC(=O)[C@H](O)[C@@H](NC(=O)c4ccccc4)c4ccccc4)C(C)=C1C3(C)C)[C@]1(OC(C)=O)CO[C@@H]1C[C@@H]2O [Paclitaxel] (first compound max 1 µM, 7x7, partner max 3 µM) | 0.898 | 0.83 | 0.928 | 0.871 | 0.534 | 1 | 0.379 | 0.427 | 0.895 | 0.947 | 0.52 | 0.34 | 0.558 | 1 | 1 | 0.982 | 0.322 | 0.954 | 0.734 | 0.685 | -0.051 | -0.0764 | -0.0172 | 0.125 | 0.0855 | 0.0663 | 0.0575 | -0.0131 | -0.0161 | -0.0298 | -0.0818 | 0.0033 | 0.0057 | 0.0482 | 0.0294 | 0.0068 | -0.0514 | -0.0139 | -0.0385 | -0.0558 |
| Cc1nc(-c2cn3c(n2)-c2ccc(-c4cnn(C(C)(C)C(N)=O)c4)cc2OCC3)n(C(C)C)n1 [Taselisib] + O=C(Nc1ccc2[nH]nc(-c3ccncc3)c2c1)[C@@H]1CCN(CC(=O)N2CCN(c3ccc(-c4ncccn4)cc3)CC2)C1 [SCH772984] (first compound max 10 µM, 7x7, partner max 5 µM) | 0.627 | 0.983 | 0.737 | 0.104 | 0.686 | 0.671 | 0.827 | 0.906 | 0.999 | 0.973 | 0.823 | 0.349 | 0.63 | 0.575 | 1 | 0.757 | 0.599 | 0.493 | 0.991 | 0.493 | 0.0209 | 0.0906 | 0.115 | -0.0601 | 0.0674 | 0.0003 | 0.0451 | 0.126 | 0.11 | 0.133 | 0.0283 | 0.0166 | -0.0183 | 0.0652 | 0.0911 | 0.0868 | -0.0455 | 0.0342 | 0.0655 | 0.0114 |
| CC1(C)CCC(CN2CCN(c3ccc(C(=O)NS(=O)(=O)c4ccc(NCC5CCOCC5)c([N+](=O)[O-])c4)c(Oc4cnc5[nH]ccc5c4)c3)CC2)=C(c2ccc(Cl)cc2)C1 [Venetoclax] + CS(=O)(=O)CCNCc1ccc(-c2ccc3ncnc(Nc4ccc(OCc5cccc(F)c5)c(Cl)c4)c3c2)o1 [Lapatinib] (first compound max 1 µM, 7x7, partner max 10 µM) | 1 | 0.226 | 0.318 | 0.181 | 0.145 | 0.291 | 0.149 | 0.294 | 0.182 | 0.909 | 0.112 | 1 | 0.343 | 0.528 | 0.764 | 0.147 | 0.493 | 0.539 | 0.262 | 0.568 | 0.0911 | -0.0326 | -0.0279 | -0.065 | -0.0418 | -0.0027 | -0.0522 | -0.0113 | -0.0046 | -0.013 | -0.0757 | 0.0104 | -0.0236 | 0.0208 | 0.108 | -0.0179 | 0.0483 | 0.0154 | -0.031 | -0.0478 |
| O=C(c1cc(Cc2n[nH]c(=O)c3ccccc23)ccc1F)N1CCN(C(=O)C2CC2)CC1 [Olaparib] + CN(CC[C@H](CSC1=CC=CC=C1)NC2=C(C=C(C=C2)S(=O)(=O)NC(=O)C3=CC=C(C=C3)N4CCC(CC4)[C@H](C5=CC=CC=C5C6=CC=C(C=C6)Cl)O)S(=O)(=O)C(F)(F)F)CCO [AZD4320] (first compound max 10 µM, 7x7, partner max 1 µM) | 1 | 0.173 | 0.39 | 0.659 | 0.151 | 0.576 | 0.546 | 0.198 | 0.617 | 0.199 | 0.228 | 1 | 0.213 | 0.2 | 1 | 0.164 | 0.534 | 0.999 | 0.159 | 0.158 | -0.0261 | -0.0367 | -0.0338 | -0.0701 | -0.0377 | -0.0543 | -0.0165 | -0.0488 | -0.0603 | -0.0113 | -0.0717 | 0.0047 | -0.0372 | -0.0175 | 0.0827 | 0.0148 | -0.0382 | 0.0456 | -0.0387 | -0.0394 |
| CN(CCO)CC[C@H](CSc1ccccc1)Nc1ccc(S(=O)(=O)NC(=O)c2ccc(N3CCC([C@@H](O)c4ccccc4-c4ccc(Cl)cc4)CC3)cc2)cc1S(=O)(=O)C(F)(F)F [AZD4320] + Nc1ccn([C@@H]2O[C@H](CO)[C@@H](O)C2(F)F)c(=O)n1 [Gemcitabine] (first compound max 1 µM, 7x7, partner max 0.3 µM) | 1 | 0.641 | 0.776 | 0.593 | 0.159 | 1 | 0.88 | 0.482 | 0.979 | 0.699 | 0.524 | 1 | 0.429 | 0.686 | 1 | 0.8 | 0.866 | 1 | 0.463 | 0.469 | 0.0431 | 0.0237 | 0.0443 | -0.0458 | -0.0342 | 0.001 | 0.0718 | -0.071 | 0.0346 | 0.0292 | -0.0442 | 0.0061 | -0.0157 | 0.0768 | 0.0029 | 0.0818 | 0.0063 | -0.0189 | -0.0211 | 0.0031 |
| Cc1cc2ncnn2cc1Nc1ncc2c(n1)n(C1CCOCC1)c(=O)n2C [AZD7648] + COc1cc([C@@H]2c3cc4c(cc3[C@@H](O[C@@H]3O[C@@H]5CO[C@@H](C)O[C@H]5[C@H](O)[C@H]3O)[C@H]3COC(=O)[C@H]23)OCO4)cc(OC)c1O [Etoposide] (first compound max 10 µM, 7x7, partner max 10 µM) | 0.968 | 0.809 | 0.85 | 0.598 | 0.168 | 0.927 | 0.399 | 0.378 | 0.948 | 0.757 | 0.428 | 0.437 | 0.497 | 0.82 | 0.976 | 0.748 | 0.386 | 1 | 0.486 | 0.942 | 0.0421 | 0.0009 | 0.0863 | -0.079 | -0.0437 | 0.119 | -0.0525 | 0.0386 | 0.154 | 0.097 | -0.0208 | 0.0378 | -0.0174 | 0.0767 | 0.106 | 0.096 | 0.01 | 0.0779 | 0.0418 | 0.0374 |
